Counter-ions that a name gives are not always drawn.
What was measured:
hERG channel = hERG channel (Homo sapiens (Human), UniProt Q12809); experiment: Evaluation of hERG channel inhibitory activity (whole-cell patch clamp, hERG-CHO cells); type: cell-based; conditions: autopatch clamp, read-out: hERG inhibition IC50
human TAAR1 receptor = human TAAR1 receptor (Homo sapiens (Human), UniProt Q96RJ0); experiment: Evaluation of agonist activity on human TAAR1 receptor (cAMP assay); type: cell-based; conditions: cAMP in human TAAR1-expressing CHO cells, relative to 100 μM tyramine; for activation at 0.1 µM / activation at 1 µM / activation at 10 µM: CHO, 0.5 h, read-out: TAAR1 agonist activity at each concentration (%); for TAAR1 agonist activity at each concentration (%): dihydrochloride
Chain of human TAAR1 receptor (Q96RJ0 whole entry, the tested form may be a part): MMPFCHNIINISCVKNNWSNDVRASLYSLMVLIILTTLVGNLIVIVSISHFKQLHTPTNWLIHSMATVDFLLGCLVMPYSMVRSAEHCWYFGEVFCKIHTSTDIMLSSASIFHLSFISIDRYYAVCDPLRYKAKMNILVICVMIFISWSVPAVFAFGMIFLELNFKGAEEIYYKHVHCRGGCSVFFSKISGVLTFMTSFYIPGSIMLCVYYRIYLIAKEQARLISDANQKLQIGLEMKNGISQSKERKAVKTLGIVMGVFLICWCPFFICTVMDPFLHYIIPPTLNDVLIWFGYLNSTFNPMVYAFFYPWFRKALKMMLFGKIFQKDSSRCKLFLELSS
Protocol: TAAR1 is a G protein-coupled receptor that binds to G proteins (Gas), and activation of the TAAR1 receptor by agonists induces an increase in intracellular cAMP levels. Therefore, the agonist activity of the sample on the human TAAR1 receptor was evaluated using the cAMP assay method.
cAMP Hunter™ CHO-K1 TAAR1 Gs Cell Line, a cell expressing human TAAR1 receptor, was purchased. Human TAAR1-expressing CHO cells were seeded in a 96-well plate, and after culturing for 24 hours, a sample dissolved in DMSO was added and incubated at 37° C. for 30 minutes. A sample for cAMP measurement was prepared according to the cAMPHiRange kit protocol. The amount of cAMP produced by the sample was measured by time-resolved fluorescence using EnVision (excitation wavelength: 330 nm, fluorescence wavelength […]/665 nm).
Sample %=100×{(Csamp)−(Cblank)}/{(Ctyramine)−(Cblank)} • Csamp: count of sample, Ctyramine: count of 100 μM tyramine, Cblank: count of blank

Chain of hERG channel (Q12809 whole entry, the tested form may be a part): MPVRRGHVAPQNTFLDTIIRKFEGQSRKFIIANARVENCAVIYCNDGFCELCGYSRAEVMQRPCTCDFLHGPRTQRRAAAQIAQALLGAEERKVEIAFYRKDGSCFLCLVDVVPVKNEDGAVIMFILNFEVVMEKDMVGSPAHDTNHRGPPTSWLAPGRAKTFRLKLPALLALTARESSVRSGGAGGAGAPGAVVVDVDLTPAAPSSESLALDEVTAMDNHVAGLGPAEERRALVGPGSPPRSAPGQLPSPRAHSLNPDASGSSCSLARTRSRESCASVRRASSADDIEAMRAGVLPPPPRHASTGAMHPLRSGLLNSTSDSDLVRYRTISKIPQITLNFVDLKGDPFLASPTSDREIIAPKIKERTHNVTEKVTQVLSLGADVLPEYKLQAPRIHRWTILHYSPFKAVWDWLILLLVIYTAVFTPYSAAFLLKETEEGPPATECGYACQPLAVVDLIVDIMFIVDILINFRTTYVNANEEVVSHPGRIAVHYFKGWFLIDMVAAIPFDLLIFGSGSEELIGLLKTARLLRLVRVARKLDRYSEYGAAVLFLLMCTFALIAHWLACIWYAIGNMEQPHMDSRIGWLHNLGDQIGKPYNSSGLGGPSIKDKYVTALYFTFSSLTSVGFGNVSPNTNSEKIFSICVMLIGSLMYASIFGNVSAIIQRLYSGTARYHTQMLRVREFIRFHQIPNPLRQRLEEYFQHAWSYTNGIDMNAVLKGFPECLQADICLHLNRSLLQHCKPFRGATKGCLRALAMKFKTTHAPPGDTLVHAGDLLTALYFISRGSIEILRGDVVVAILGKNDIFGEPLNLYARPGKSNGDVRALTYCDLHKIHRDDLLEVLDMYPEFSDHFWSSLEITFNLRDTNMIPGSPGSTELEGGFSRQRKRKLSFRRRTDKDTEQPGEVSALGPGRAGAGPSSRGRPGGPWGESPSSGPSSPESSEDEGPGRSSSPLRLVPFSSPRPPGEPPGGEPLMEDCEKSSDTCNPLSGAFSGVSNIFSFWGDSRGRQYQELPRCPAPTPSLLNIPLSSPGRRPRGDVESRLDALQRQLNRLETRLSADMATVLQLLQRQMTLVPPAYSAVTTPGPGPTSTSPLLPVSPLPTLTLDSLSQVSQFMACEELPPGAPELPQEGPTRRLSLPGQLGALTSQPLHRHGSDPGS

| Compound | activation at 0.1 µM (human TAAR1 receptor; 100 nM) | activation at 1 µM (human TAAR1 receptor; 1000 nM) | activation at 10 µM (human TAAR1 receptor; 10000 nM) | TAAR1 agonist activity at each concentration (%) (human TAAR1 receptor; 100 nM) | TAAR1 agonist activity at each concentration (%) (human TAAR1 receptor; 1000 nM) | TAAR1 agonist activity at each concentration (%) (human TAAR1 receptor; 10000 nM) | IC50 (hERG channel) |
| --- | --- | --- | --- | --- | --- | --- | --- |
| C[C@H]1Oc2cc(F)cnc2[C@@H]1CN [Example 8, 1-[(2R,3S)-6-fluoro-2-methyl-2,3-dihydrofuro[3,2-b]pyridin-3-yl]methanamine dihydrochloride] | 24% | 63% | 75% |  |  |  | > 100 µM |
| Cc1ccc2c(n1)C(CN)CS2 (stereo not shown) [Example 11] | 20% | 58% | 79% |  |  |  | > 100 µM |
| Cc1ccc2c(n1)C(CN)CCS2 (stereo not shown) [Example 12] | 21% | 58% | 75% |  |  |  | > 100 µM |
| C[C@H]1Oc2ccc(F)nc2[C@@H]1CN [Example 29] | 51% | 93% | 104% |  |  |  | > 100 µM |
| Cc1ccnc2c1O[C@H](C)[C@H]2CN [Example 34, 1-[(2R,3S)-2,7-dimethyl-2,3-dihydrofuro[3,2-b]pyridin-3-yl]methanamine dihydrochloride] | 10% | 48% | 83% |  |  |  | > 100 µM |
| Cc1ccc2c(n1)[C@H](CN)[C@@H](C)O2 [Example 35, 1-[(2R,3S)-2,5-dimethyl-2,3-dihydrofuro[3,2-b]pyridin-3-yl]methanamine] | 57% | 82% | 87% |  |  |  | > 100 µM |
| C[C@H]1Oc2cc(Cl)cnc2[C@@H]1CN [Example 37, 1-[(2R,3S)-6-chloro-2-methyl-2,3-dihydrofuro[3,2-b]pyridin-3-yl]methanamine dihydrochloride] |  | 49% | 72% | 13% |  |  | > 100 µM |
| C[C@H]1Oc2ccc(Cl)nc2[C@@H]1CN [Example 38, 1-[(2R,3S)-5-chloro-2-methyl-2,3-dihydrofuro[3,2-b]pyridin-3-yl]methanamine dihydrochloride] | 52% | 86% | 93% |  |  |  | > 100 µM |

Second part, led by results:

| activation at 0.1 µM (human TAAR1 receptor; 100 nM) | activation at 1 µM (human TAAR1 receptor; 1000 nM) | activation at 10 µM (human TAAR1 receptor; 10000 nM) | TAAR1 agonist activity at each concentration (%) (human TAAR1 receptor; 100 nM) | TAAR1 agonist activity at each concentration (%) (human TAAR1 receptor; 1000 nM) | TAAR1 agonist activity at each concentration (%) (human TAAR1 receptor; 10000 nM) | Compound | IC50 (hERG channel) |
| --- | --- | --- | --- | --- | --- | --- | --- |
| 11% | 56% | 84% |  |  |  | CC[C@H]1Oc2cccnc2[C@@H]1CN (stereo in doubt) [Example 22] | > 100 µM |
| 13% | 48% | 79% |  |  |  | CC[C@@H]1Oc2cccnc2[C@H]1CN (stereo in doubt) [Example 44, rel-1-[(2S,3R)-2-ethyl-2,3-dihydrofuro[3,2-b]pyridin-3-yl]methanamine dihydrochloride] | > 100 µM |
|  |  |  | 24% | 68% | 90% | CNC[C@@H]1C[C@@H](C)Oc2cccnc21 [Example 5, N-methyl-1-[(2R,4S)-2-methyl-3,4-dihydro-2H-pyrano[3,2-b]pyridin-4-yl]methanamine dihydrochloride] | > 100 µM |
| 16% | 57% | 75% |  |  |  | CNC[C@@H]1C[C@H](C)Oc2cccnc21 [Example 6] | > 100 µM |
| 15% | 53% | 70% |  |  |  | NCC1CCSc2cccnc21 (stereo not shown) [Example 9] | > 100 µM |
| 29% | 73% | 87% |  |  |  | Cc1ccc2c(n1)[C@H](CN)C[C@@H](C)O2 [Example 18] | > 100 µM |
| 35% | 74% | 91% |  |  |  | CC1(C)Oc2cccnc2C1CN (stereo not shown) [Example 23] | > 100 µM |
| 40% | 81% | 95% |  |  |  | C[C@H]1Oc2cccnc2[C@@H]1CN [Example 27, 1-[(2R,3S)-2-methyl-2,3-dihydrofuro[3,2-b]pyridin-3-yl]methanamine dihydrochloride] | > 100 µM |
